target: T1, human calcium receptor (Homo sapiens, UniProt P41180); experiment: Evaluation of antagonistic action on calcium receptor using reporter gene (luciferase); assay type: cell-based; details: transformed rat adrenal derived cells, 5 mM calcium chloride, culture 4 hrs, luciferase activity; read-out: Reporter gene assay (IC50, concentration showing 50% inhibitory rate)
T1 construct: expressed in transfected cells; host or cells: cell strain derived from rat adrenal, co-transformed with luciferase cDNA
T1 sequence (P41180 20-1078): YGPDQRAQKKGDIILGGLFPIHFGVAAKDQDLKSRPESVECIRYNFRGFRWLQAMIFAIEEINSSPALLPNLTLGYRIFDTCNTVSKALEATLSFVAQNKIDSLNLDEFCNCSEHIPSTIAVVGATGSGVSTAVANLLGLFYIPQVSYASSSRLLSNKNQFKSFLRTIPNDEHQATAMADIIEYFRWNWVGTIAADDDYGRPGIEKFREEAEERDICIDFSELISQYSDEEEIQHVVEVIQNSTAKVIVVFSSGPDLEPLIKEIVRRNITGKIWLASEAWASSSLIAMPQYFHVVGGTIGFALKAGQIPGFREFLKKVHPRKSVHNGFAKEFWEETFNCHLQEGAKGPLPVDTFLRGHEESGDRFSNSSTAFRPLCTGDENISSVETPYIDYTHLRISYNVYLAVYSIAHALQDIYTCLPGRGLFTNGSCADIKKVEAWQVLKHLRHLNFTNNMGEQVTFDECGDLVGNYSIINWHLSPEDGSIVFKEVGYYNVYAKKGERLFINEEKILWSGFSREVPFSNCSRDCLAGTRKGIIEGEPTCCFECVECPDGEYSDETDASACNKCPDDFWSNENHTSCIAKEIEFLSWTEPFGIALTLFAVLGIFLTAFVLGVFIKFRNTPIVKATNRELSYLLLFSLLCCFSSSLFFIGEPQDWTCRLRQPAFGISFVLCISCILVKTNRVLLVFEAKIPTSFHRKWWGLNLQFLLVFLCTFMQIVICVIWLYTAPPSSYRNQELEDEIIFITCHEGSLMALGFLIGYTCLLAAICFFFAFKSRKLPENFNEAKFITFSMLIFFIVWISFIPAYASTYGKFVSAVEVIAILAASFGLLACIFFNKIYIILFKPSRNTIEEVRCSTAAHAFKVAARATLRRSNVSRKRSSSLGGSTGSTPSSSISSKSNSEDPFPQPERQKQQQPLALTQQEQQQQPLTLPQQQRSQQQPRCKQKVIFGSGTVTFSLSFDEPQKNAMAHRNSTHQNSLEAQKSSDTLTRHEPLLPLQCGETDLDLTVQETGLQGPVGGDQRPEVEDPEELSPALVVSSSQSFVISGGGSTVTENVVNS
Protocol: Evaluation of Antagonistic Action on Calcium Receptor Using Reporter Gene
Luciferase cDNA and human calcium receptor cDNA were introduced into a cell strain derived from rat adrenal to transform the cells, and the transformed cells were cultured in a medium (80 μl, F12 medium containing 0.5% dialyzed horse serum and 0.25% dialyzed bovine fetal serum). A dimethyl sulfoxide solution containing a test compound at 0.1-10000 μM was diluted 100-fold with the medium and added to the test compound group at 10 μl per well (dimethyl sulfoxide final concentration 0.1%). In the same manner as in test compound group, dimethyl sulfoxide 100-fold diluted with medium was added to a control group and a blank group. Then, 50 mM calcium chloride-containing medium was added to every well except the blank group at 10 μl per well (final concentration 5 mM). A medium containing 50 mM calcium chloride was added to the control group at 10 μl per well, such that the final calcium concentration of the medium became 5 mM. A medium alone was added to the blank group. After culture for 4 hrs, luciferase substrate was added and the luciferase activity was measured with a photoluminometer. The inhibitory rate (%) was calculated from the obtained measured values according to the following formula.
Based on the results, the concentration (IC50) showing 50% inhibitory rate was determined. The results are shown in the aforementioned Tables 1 to 60.

Compared with `Cc1cc(-c2ccccc2[C@@H](C)OC[C@H](O)CNC(C)(C)Cc2cc(F)c(Cl)cc2F)ccc1C(=O)O` [Example 1-25, 2′-[1-[(2R)-3-[[1-(4-chloro-2,5-difluorophenyl)-2-methylpropan-2-yl]amino]-2-hydroxypropoxy]ethyl]-3-methylbiphenyl-4-carboxylic acid], `CCc1cc(-c2ccccc2[C@@H](C)OC[C@H](O)CNC(C)(C)Cc2ccc(Cl)c(F)c2)ccc1C(=O)O` [Example 1-51, 3-ethyl-2′-[1-[(2R)-3-[[1-(4-chloro-3-fluorophenyl)-2-methylpropan-2-yl]amino]-2-hydroxypropoxy]ethyl]biphenyl-4-carboxylic acid] is 4.8-fold lower in IC50: 19 nM for the first, 4 nM for the second. The second is the more potent here.

Compared with `CC(OC[C@H](O)CNC(C)(C)Cc1ccc2ccccc2c1)c1ccccc1-c1ccc(C(=O)O)c(C(F)(F)F)c1` (stereo partly drawn) [Example 1-28, 2′-[1-[(2R)-3-[[1-(naphthalen-2-yl)-2-methylpropan-2-yl]amino]-2-hydroxypropoxy]ethyl]-3-(trifluoromethyl)biphenyl-4-carboxylic acid], `C[C@@H](OC[C@H](O)CNC(C)(C)Cc1ccc2ccccc2c1)c1ccccc1-c1ccc(C(=O)O)c(O)c1` [Example 1-49, 2′-[1-[(2R)-3-[[1-(naphthalen-2-yl)-2-methylpropan-2-yl]amino]-2-hydroxypropoxy]ethyl]-3-hydroxybiphenyl-4-carboxylic acid] is 3.5-fold lower in IC50: 7 nM for the first, 2 nM for the second. The second is the more potent here.

Going from `COc1ccc(CC(C)(C)NC[C@@H](O)CO[C@H](C)c2ccccc2-c2ccc(C(=O)O)c(C(F)(F)F)c2)c(F)c1` [Example 1-29, 2′-[1-[(2R)-3-[[1-(2-fluoro-4-methoxyphenyl)-2-methylpropan-2-yl]amino]-2-hydroxypropoxy]ethyl]-3-(trifluoromethyl)biphenyl-4-carboxylic acid] to `C[C@@H](OC[C@H](O)CNC(C)(C)Cc1ccc(Cl)c(Cl)c1)c1ccccc1-c1ccc(C(=O)O)c(C(F)(F)F)c1` [Example 1-31, 2′-[1-[(2R)-3-[[1-(3,4-dichlorophenyl)-2-methylpropan-2-yl]amino]-2-hydroxypropoxy]ethyl]-3-(trifluoromethyl)biphenyl-4-carboxylic acid], the IC50 falls from 82 nM to 5 nM (16-fold).

`CCCc1cc(-c2ccccc2[C@@H](C)OC[C@H](O)CNC(C)(C)Cc2ccc3ccccc3c2)ccc1C(=O)O` [Example 1-36, 2′-[1-[(2R)-3-[[1-(naphthalen-2-yl)-2-methylpropan-2-yl]amino]-2-hydroxypropoxy]ethyl]-3-propylbiphenyl-4-carboxylic acid] and `CC(C)Cc1cc(-c2ccccc2[C@@H](C)OC[C@H](O)CNC(C)(C)Cc2ccc3ccccc3c2)ccc1C(=O)O` [Example 1-45, 3-isobutyl-2′-[1-[(2R)-3-[[1-(naphthalen-2-yl)-2-methylpropan-2-yl]amino]-2-hydroxypropoxy]ethyl]biphenyl-4-carboxylic acid] are the same in IC50: 2 nM for the first, 2 nM for the second.

Compared with `Cc1c(C(=O)O)ccc(-c2ccccc2[C@@H](C)OC[C@H](O)CNC(C)(C)Cc2ccc3ccccc3c2)c1C` [Example 1-37, 2,3-dimethyl-2′-[1-[(2R)-3-[[1-(naphthalen-2-yl)-2-methylpropan-2-yl]amino]-2-hydroxypropoxy]ethyl]biphenyl-4-carboxylic acid], `Cc1cc(C(=O)O)ccc1-c1ccccc1[C@@H](C)OC[C@H](O)CNC(C)(C)Cc1ccc2ccccc2c1` [Example 1-54, 2-methyl-2′-[1-[(2R)-3-[[1-(naphthalen-2-yl)-2-methylpropan-2-yl]amino]-2-hydroxypropoxy]ethyl]biphenyl-4-carboxylic acid] is 7.7-fold higher in IC50: 3 nM for the first, 23 nM for the second.

First: CCCc1cc(-c2ccccc2[C@@H](C)OC[C@H](O)CNC(C)(C)Cc2ccc(C)c(F)c2)ccc1C(=O)O [Example 1-38, 2′-[1-[(2R)-3-[[1-(3-fluoro-4-methylphenyl)-2-methylpropan-2-yl]amino]-2-hydroxypropoxy]ethyl]-3-propylbiphenyl-4-carboxylic acid]
Second: Cc1ccc(CC(C)(C)NC[C@@H](O)CO[C@H](C)c2ccccc2-c2ccc(C(=O)O)c(CC(C)C)c2)cc1F [Example 1-46, 2′-[1-[(2R)-3-[[1-(3-fluoro-4-methylphenyl)-2-methylpropan-2-yl]amino]-2-hydroxypropoxy]ethyl]-3-isobutylbiphenyl-4-carboxylic acid]
The IC50 of the first is 1.5-fold lower: 2 nM for the first, 3 nM for the second.

Going from `Cc1cc(-c2ccccc2[C@@H](C)OC[C@H](O)CNC(C)(C)Cc2ccc3ccccc3c2)cc(C)c1C(=O)O` [Example 1-40, 3,5-dimethyl-2′-[1-[(2R)-3-[[1-(naphthalen-2-yl)-2-methylpropan-2-yl]amino]-2-hydroxypropoxy]ethyl]biphenyl-4-carboxylic acid] to `Cc1ccc(CC(C)(C)NC[C@@H](O)CO[C@H](C)c2ccccc2-c2cc(C)c(C(=O)O)c(C)c2)cc1F` [Example 1-43, 2′-[1-[(2R)-3-[[1-(3-fluoro-4-methylphenyl)-2-methylpropan-2-yl]amino]-2-hydroxypropoxy]ethyl]-3,5-dimethylbiphenyl-4-carboxylic acid], the IC50 rises from 3 nM to 16 nM (5.3-fold). The first is the more potent here.

Compared with `C[C@@H](OC[C@H](O)CNC(C)(C)Cc1ccc2ccccc2c1)c1ccccc1-c1ccc(C(=O)O)c(-c2ccccc2)c1` [Example 1-41, 2-[1-[(2R)-3-[[1-(naphthalen-2-yl)-2-methylpropan-2-yl]amino]-2-hydroxypropoxy]ethyl]-m-terphenyl-4′-carboxylic acid], `C[C@@H](OC[C@H](O)CNC(C)(C)Cc1ccc2ccccc2c1)c1ccccc1-c1ccc(CO)c(C(=O)O)c1` [Example 1-44, 4-(hydroxymethyl)-2′-[1-[(2R)-3-[[1-(naphthalen-2-yl)-2-methylpropan-2-yl]amino]-2-hydroxypropoxy]ethyl]biphenyl-3-carboxylic acid] is 3-fold higher in IC50: 3 nM for the first, 9 nM for the second.

Compared with `Cc1ccc(CC(C)(C)NC[C@@H](O)CO[C@H](C)c2ccccc2-c2ccc(C(=O)O)c(C)c2C)cc1F` [Example 1-42, 2′-[1-[(2R)-3-[[1-(3-fluoro-4-methylphenyl)-2-methylpropan-2-yl]amino]-2-hydroxypropoxy]ethyl]-2,3-dimethylbiphenyl-4-carboxylic acid], `Cc1ccc(CC(C)(C)NC[C@@H](O)CO[C@H](C)c2ccccc2-c2ccc(C(=O)O)c(O)c2)cc1F` [Example 1-50, 2′-[1-[(2R)-3-[[1-(3-fluoro-4-methylphenyl)-2-methylpropan-2-yl]amino]-2-hydroxypropoxy]ethyl]-3-hydroxybiphenyl-4-carboxylic acid] is 12-fold lower in IC50: 24 nM for the first, 2 nM for the second. The second is the more potent here.

Going from `Cc1ccc(CC(C)(C)NC[C@@H](O)CO[C@H](C)c2ccccc2-c2ccc(CO)c(C(=O)O)c2)cc1F` [Example 1-47, 2′-[1-[(2R)-3-[[1-(3-fluoro-4-methylphenyl)-2-methylpropan-2-yl]amino]-2-hydroxypropoxy]ethyl]-4-(hydroxymethyl)biphenyl-3-carboxylic acid] to `CCC(C)c1cc(-c2ccccc2[C@@H](C)OC[C@H](O)CNC(C)(C)Cc2ccc(C)c(F)c2)ccc1C(=O)O` (stereo partly drawn) [Example 1-53, 2′-[1-[(2R)-3-[[1-(3-fluoro-4-methylphenyl)-2-methylpropan-2-yl]amino]-2-hydroxypropoxy]ethyl]-3-(1-methylpropyl)biphenyl-4-carboxylic acid], the IC50 falls from 65 nM to 15 nM (4.3-fold).

Molecule `CC(C)c1cc(-c2ccccc2[C@@H](C)OC[C@H](O)CNC(C)(C)Cc2ccc(Cl)c(F)c2)ccc1C(=O)O` [Example 1-52, 2′-[1-[(2R)-3-[[1-(4-chloro-3-fluorophenyl)-2-methylpropan-2-yl]amino]-2-hydroxypropoxy]ethyl]-3-isopropylbiphenyl-4-carboxylic acid] has an IC50 of 3 nM.
